# Test results published in patent US20220144768A1, “SOLID STATE FORMS OF SIPONIMOD” (DR. REDDY'S LABORATORIES LIMITED, priority 2019, published 2022).
# Experiment: Solid form stability on storage, analyzed using PXRD
# Assay type: physicochemical
# Method: The crystalline Form S2 of Siponimod prepared by the process of the present application is kept at about 25° C. After three months the solid was analyzed using PXRD. […] The crystalline Form S2 of Siponimod prepared by the process of the present application is kept at about 70° C. After three months the solid was analyzed using PXRD.
# In another aspect, the present application provides stable amorphous Siponimod. […] The amorphous Siponimod prepared by the process of the present application is kept in a […] at about 5° C. After one year the solid was analyzed using PXRD.
# The amorphous form of siponimod prepared in example-3 was kept in an amber colored glass bottle at 2-8° C. for one year and the solid was analyzed using PXRD.
Compound,"stability of the amorphous form (time stable) (amorphous form, storage, PXRD)","solid form after storage (PXRD) (kept in a freezer at about 5° C., after one year, PXRD shown in FIG. 7)","stability of the crystalline form (time stable) (crystalline Form S2, storage, PXRD)","solid form after storage (PXRD) (kept at about 25° C., after three months, PXRD matches FIG. 3)","solid form after storage (PXRD) (kept at about 70° C., after three months, PXRD matches FIG. 3)"
CCc1cc(/C(C)=N/OCc2ccc(C3CCCCC3)c(C(F)(F)F)c2)ccc1CN1CC(C(=O)O)C1 [amorphous Siponimod],stable for at least one year,remains in amorphous form,,,
CCc1cc(/C(C)=N/OCc2ccc(C3CCCCC3)c(C(F)(F)F)c2)ccc1CN1CC(C(=O)O)C1 [crystalline Form S2 of Siponimod],,,stable for at least three months,remains in crystalline Form S2,remains in crystalline Form S2
